Where two headings read alike, the source gives them in different places.
What was measured:
[1] = tested on: femur fractures; design: Percent Effective Shear Modulus / Percent Effective Shear Stress: scale not given: direction of the effect not stated beside the values; settings: no carrier, 4 weeks post-fracture; for Percent Effective Shear Modulus / Percent Effective Shear Stress / Percent Maximum Torque to Failure / Percent maximum torsional rigidity: normalized to intact femur
Experimental: Torsional testing was conducted at 4 weeks post-fracture, using a servohydraulics machine (MTS Sys. Corp., Eden Prairie, MN) with a 20 Nm reaction torque cell (Interface, Scottsdale, AZ). Femurs were tested to failure at a rate of 2.0 deg/sec at four weeks post-fracture. […] In order to compare the biomechanical parameters between different groups, the data was normalized by dividing each fractured femur value by its corresponding intact, contralateral femur value. Torsional mechanical testing is limited by differences in gauge length during bone potting in Field's metal. Placement and dimension of fracture gap can contribute to standard deviations.

[2] = tested on: femur fractures
From the text: The fractured femora were resected at seven and ten days post-fracture, decalcified, dehydrated, embedded in paraffin, and sectioned using standard histological techniques. Sections were stained with Masson's Trichrome (Accustain™ Trichrome Staining kit, Sigma Diagnostics, St. Louis, MO) for histological observation using an Olympus BH2-RFCA microscope (Olympus Optical Co., Ltd., Shinjuku-ku, Tokyo, Japan). Digital images were collected using a Nikon DXM1200F digital camera (Nikon, Tokyo, Japan). Cartilage, new bone, and total callus area were measured from the digital images using Image-Pro Plus software (version 5, Media Cybernetics, Inc., Silver Spring, MD). Total cartilage and new bone area were normalized to total callus area and expressed as the percent area. Two independent reviewers were used to minimize inconsistencies.

[3] = tested on: femur fractures; settings: four weeks post-fracture
From the text: X-rays are taken at two-week intervals to the day of euthanasia. After euthanasia x-rays are taken as well. To take x-rays, animals will be given a half dose of anesthesia. All groups will be monitored closely for four days after surgery for infection, and the ability to ambulate freely.

[4] = tested on: posterolateral lumbar fusion (L4-L5); test: Spinal fusion: manual palpation; settings: n=10, eight weeks
[5] = tested on: posterolateral lumbar fusion (L4-L5); test: Spinal fusion: MicroCT bone volume; settings: L4/L5 transverse processes and fusion mass, eight weeks
[6] = tested on: posterolateral lumbar fusion (L4-L5); test: Spinal fusion: radiographic analysis; settings: n=10, eight weeks
[7] = manganese chloride 0.125 mg/kg, 7 days post fracture
[8] = manganese chloride 0.125 mg/kg, 10 days post fracture
[9] = manganese chloride 0.3 mg/kg, 7 days post fracture
[10] = manganese chloride 0.3 mg/kg, 10 days post fracture
[11] = manganese chloride 0.87 mg/kg, 7 days post fracture
[12] = manganese chloride 0.87 mg/kg, 10 days post fracture
[13] = Zn-high pellet 1.0 mg/kg, listed as zinc
[14] = Zn-low pellet 0.5 mg/kg, listed as zinc

SMILES: [Cl][Mn][Cl] [MnCl2, manganese chloride]
- Effective Shear Modulus ([1]; MnCl2 0.083 mg/kg local): 8.7×10^2 ± 4.9×10^2 MPa
- Effective Shear Stress ([1]; MnCl2 0.083 mg/kg local): 30 ± 8 MPa
- Maximum Torque to Failure ([1]; MnCl2 0.083 mg/kg local): 272 ± 39 Nmm
- Maximum Torsional Rigidity ([1]; MnCl2 0.083 mg/kg local): 2.6×10^4 ± 1.2×10^4 Nmm^2/rad
- Percent Effective Shear Modulus ([1]; MnCl2 0.083 mg/kg local): 8 ± 7%
- Percent Effective Shear Stress ([1]; MnCl2 0.083 mg/kg local): 8 ± 4%
- Percent Maximum Torque to Failure ([1]; MnCl2 0.083 mg/kg local): 42 ± 5%
- Percent maximum torsional rigidity ([1]; MnCl2 0.083 mg/kg local): 56 ± 30%
- Effective Shear Modulus ([1]; MnCl2 0.125 mg/kg local): 6.4×10^2 ± 8.8×10^1 MPa
- Effective Shear Stress ([1]; MnCl2 0.125 mg/kg local): 21 ± 6 MPa
- Maximum Torque to Failure ([1]; MnCl2 0.125 mg/kg local): 351 ± 59^∗ Nmm
- Maximum Torsional Rigidity ([1]; MnCl2 0.125 mg/kg local): 4.2×10^4 ± 1.1×10^4 Nmm^2/rad
- Percent Effective Shear Modulus ([1]; MnCl2 0.125 mg/kg local): 16 ± 11%
- Percent Effective Shear Stress ([1]; MnCl2 0.125 mg/kg local): 14 ± 5%
- Percent Maximum Torque to Failure ([1]; MnCl2 0.125 mg/kg local): 54 ± 5%
- Percent maximum torsional rigidity ([1]; MnCl2 0.125 mg/kg local): 103 ± 40^∗ Percent
- Effective Shear Modulus ([1]; MnCl2 0.25 mg/kg local): 8.1×10^2 ± 5.0×10^2 MPa
- Effective Shear Stress ([1]; MnCl2 0.25 mg/kg local): 32 ± 11 MPa
- Maximum Torque to Failure ([1]; MnCl2 0.25 mg/kg local): 344 ± 84^∗ Nmm
- Maximum Torsional Rigidity ([1]; MnCl2 0.25 mg/kg local): 3.4×10^4 ± 1.6×10^4 Nmm^2/rad
- Percent Effective Shear Modulus ([1]; MnCl2 0.25 mg/kg local): 14 ± 9%
- Percent Effective Shear Stress ([1]; MnCl2 0.25 mg/kg local): 16 ± 6%
- Percent Maximum Torque to Failure ([1]; MnCl2 0.25 mg/kg local): 55 ± 19%
- Percent maximum torsional rigidity ([1]; MnCl2 0.25 mg/kg local): 80 ± 34^∗ Percent
- Effective Shear Modulus ([1]; MnCl2 0.30 mg/kg local): 7.6×10^2 ± 9.2×10^2 MPa
- Effective Shear Stress ([1]; MnCl2 0.30 mg/kg local): 27 ± 23 MPa
- Maximum Torque to Failure ([1]; MnCl2 0.30 mg/kg local): 323 ± 135^∗ Nmm
- Maximum Torsional Rigidity ([1]; MnCl2 0.30 mg/kg local): 3.0×10^4 ± 2.6×10^4 Nmm^2/rad
- Percent Effective Shear Modulus ([1]; MnCl2 0.30 mg/kg local): 10 ± 12%
- Percent Effective Shear Stress ([1]; MnCl2 0.30 mg/kg local): 16 ± 12%
- Percent Maximum Torque to Failure ([1]; MnCl2 0.30 mg/kg local): 50 ± 22%
- Percent maximum torsional rigidity ([1]; MnCl2 0.30 mg/kg local): 50 ± 37%
- Effective Shear Modulus ([1]; MnCl2 0.50 mg/kg local): 6.2×10^2 ± 3.5×10^2 MPa
- Effective Shear Stress ([1]; MnCl2 0.50 mg/kg local): 19 ± 9 MPa
- Maximum Torque to Failure ([1]; MnCl2 0.50 mg/kg local): 230 ± 83 Nmm
- Maximum Torsional Rigidity ([1]; MnCl2 0.50 mg/kg local): 2.9×10^4 ± 1.2×10^4 Nmm^2/rad
- Percent Effective Shear Modulus ([1]; MnCl2 0.50 mg/kg local): 17 ± 13%
- Percent Effective Shear Stress ([1]; MnCl2 0.50 mg/kg local): 14 ± 7%
- Percent Maximum Torque to Failure ([1]; MnCl2 0.50 mg/kg local): 38 ± 15%
- Percent maximum torsional rigidity ([1]; MnCl2 0.50 mg/kg local): 61 ± 16%
- % Cartilage [2, 7]: 4.843 ± 2.3 n=6%
- % new bone [2, 7]: 15.518 ± 2.69 n=6%
- % Cartilage [2, 8]: 5.9 ± 4.47 n=5%
- % new bone [2, 8]: 14.69 ± 11.74 n=5%
- % Cartilage [2, 9]: 2.859 ± 1.09 n=7%
- % new bone [2, 9]: 15.604 ± 2.39 n=7%
- % Cartilage [2, 10]: 11.051 ± 3.05 n=9%
- % new bone [2, 10]: 18.866 ± 2.28^∗,# n=9%
- % Cartilage [2, 11]: 4.355 ± 3.99 n=3%
- % new bone [2, 11]: 16.492 ± 3.59 n=3%
- % Cartilage [2, 12]: 8.227 ± 2.24 n=3%
- % new bone [2, 12]: 15.948 ± 3.04 n=3%
- mineralized tissue on radiographs ([3]; MnCl2 0.25 mg/kg): increased mineralized tissue than saline controls
- union on radiographs ([3]; MnCl2 group, saline control had no evidence of union): union at the subperiosteal bony area and at the callus

SMILES: [Zn] [Zn]
- Manual palpation: number graded A = fused ([4]; Zn-high pellet 1.0 mg/kg): 4
- Manual palpation: number graded B = partially fused ([4]; Zn-high pellet 1.0 mg/kg): 1
- Manual palpation: number graded C = not fused ([4]; Zn-high pellet 1.0 mg/kg): 5
- Manual palpation: number graded A = fused [4, 13]: 4/10
- Manual palpation: number graded B = partially fused [4, 13]: 1/10
- Manual palpation: number graded C = not fused [4, 13]: 5/10
- Manual palpation: number graded A = fused ([4]; Zn-low pellet 0.5 mg/kg): 3
- Manual palpation: number graded B = partially fused ([4]; Zn-low pellet 0.5 mg/kg): 4
- Manual palpation: number graded C = not fused ([4]; Zn-low pellet 0.5 mg/kg): 3
- Manual palpation: number graded A = fused [4, 14]: 3/10
- Manual palpation: number graded B = partially fused [4, 14]: 4/10
- Manual palpation: number graded C = not fused [4, 14]: 3/10
- Mean Bone Volume ([5]; Zn high dose pellet (1.0 mg/kg)): 172.7 mm^3
- Mean Bone Volume ([5]; Zn low dose pellet (0.5 mg/kg)): 172.9 mm^3
- Radiographs: number graded A = solid fusion mass bilaterally ([6]; Zn-high pellet 1.0 mg/kg): 7
- Radiographs: number graded B = unilateral fusion mass ([6]; Zn-high pellet 1.0 mg/kg): 3
- Radiographs: number graded C = small fusion mass bilaterally ([6]; Zn-high pellet 1.0 mg/kg): 0
- Radiographs: number graded D = Graft resorption ([6]; Zn-high pellet 1.0 mg/kg): 0
- Radiographs: number graded A = solid fusion mass bilaterally [6, 13]: 7/10
- Radiographs: number graded B = unilateral fusion mass [6, 13]: 3/10
- Radiographs: number graded C = small fusion mass bilaterally [6, 13]: 0/10
- Radiographs: number graded D = Graft resorption [6, 13]: 0/10
- Radiographs: number graded A = solid fusion mass bilaterally ([6]; Zn-low pellet 0.5 mg/kg): 7
- Radiographs: number graded B = unilateral fusion mass ([6]; Zn-low pellet 0.5 mg/kg): 1
- Radiographs: number graded C = small fusion mass bilaterally ([6]; Zn-low pellet 0.5 mg/kg): 2
- Radiographs: number graded D = Graft resorption ([6]; Zn-low pellet 0.5 mg/kg): 0
- Radiographs: number graded A = solid fusion mass bilaterally [6, 14]: 7/10
- Radiographs: number graded B = unilateral fusion mass [6, 14]: 1/10
- Radiographs: number graded C = small fusion mass bilaterally [6, 14]: 2/10
- Radiographs: number graded D = Graft resorption [6, 14]: 0/10

Reference: patent EP2785358B1, “INSULIN-MIMETICS AS THERAPEUTIC ADJUNCTS FOR BONE REGENERATION” (priority 2011, dated 2013)
